Here are results for three molecules from PMC10813298, “Evidence of Guanidines Potential against Leishmania (Viannia) braziliensis: Exploring In Vitro Effectiveness, Toxicities and of Innate Immunity Response Effects” (Biomolecules, 2023).

In general, EC50 refers to the concentration at which the effect is half-maximal. A higher EC50 goes with a need for much substance.

Data set [1] concerns reactive oxygen species (ROS). Kind of data set: ROS production (H2DCFDA) in infected RAW 264.7 macrophages. As to conditions: RAW 264.7 macrophages infected with L. (V.) braziliensis. It is filed as cell-based, murine. On the procedure:
To quantify the levels of ROS generated by L. (V.) braziliensis-infected RAW 264.7 macrophages, the following procedure was employed: RAW 264.7 macrophages (1 × 10^5 cells per well) were added to a 96-well plate, with each well containing 100 μL of supplemented DMEM medium. These cells were allowed to incubate for 3 h at 37 °C with 5% CO2 to promote cell adhesion. Subsequently, the macrophages were infected with L. (V.) braziliensis at a ratio of 10:1 (promastigotes to macrophages) and incubated for 4 h. After the infection period, the cells were plated and incubated with various concentrations of test substances, ranging from 3.12 to 25 μmol/L. This incubation was carried out at 37 °C with 5% CO2 for duration of 72 h. Following the incubation period, 10 µL of H2DCFDA dye was added to each well, resulting in a final concentration of 20 µmol/L. The cells were then incubated at 37 °C in the dark for 30 min. The fluorescent intensity was measured using a fluorescence plate reader (FLx800) at an excitation wavelength of 485 nm and an emission wavelength of 528 nm. The fold change in ROS levels was calculated by comparing the results to a normal control.

In the next data set the test system is LmCPB2.8ΔCTE. On the set-up: method as in PMID 36551331. The following applies: previous findings; cited from earlier work.
A further data set concerns aorta. Briefly: Vasodilator effect on aortic rings (KCl contraction). As to conditions: Cavia porcellus; guinea pig aortic rings. The protocol: (§1) Guinea pigs of either sex weighing between 250 or 380 g were utilized in this study. The animals were housed in a controlled environment in an air-conditioned room, maintaining a temperature of 22 to 24 °C and a relative humidity of 50% to 60%. A 12 h light–dark cycle was maintained.
(§2) On the day of the experiments, the animals were euthanized via cervical dislocation. The heart, aorta, pulmonary artery, and ileum were surgically removed and immersed in Krebs–Henseleit solution, with the following composition: NaCl 144.9 mM, KCl 4.73 mM, CaCl2 3.2 mM, MgSO4 1.18 mM, NaHCO3 24.9 mM, KH2PO4 1.18 mM, and glucose 10 mM, with the pH maintained at 7.2–7.4. This solution was continuously aerated with a mixture of 95% O2 and 5% CO2.
Papillary muscles were isolated from the right ventricle of the heart and meticulously cleared of Purkinje fibers to prevent spontaneous activity. To ensure adequate oxygen supply, only muscles with a diameter less than 0.87 mm were used. The right atrium was also dissected for assessment of chronotropic activity. […]
(§3) Following a 30 min control period, different concentrations of test compounds were cumulatively added to the bath solution every 45 min until a stable effect was achieved. The responses were recorded using a chart recorder (BD 112 Dual Channel, Kipp &Zonen, PO Box 507, 2624 BC, Delft, Holland) for subsequent evaluation. […]

Data set [2] relates to Leishmania (Leishmania) amazonensis. On the set-up: method as in PMID 36551331. The following applies: BALB/c-L. (L.) amazonensis, 0.13 mg/kg/day; cited from earlier work.
Another data set deals with IL-10. Briefly: Cytokine production in supernatant of infected macrophages (ELISA), IL-10. The format is cell-based, murine. The following applies: supernatant of RAW 264.7 macrophages infected with L. (V.) braziliensis. The source says: (§4) To assess the production of cytokines TNF-α and IL-12 (associated with Th1 response), as well as IL-10 and IL-6 (associated with Th2 response), in the supernatants of the macrophage infection assay, the sandwich enzyme-linked immunosorbent assay (ELISA) method was employed, following the manufacturer’s instructions (eBioscience^TM, San Diego, CA, USA). Initially, capture antibodies specific to TNF-α, IL-6, IL-10, and IL-12 were sensitized in ELISA plates (NUNC-ImmunoTM, Sigma-Aldrich, St. Louis, MO, USA). The plates were incubated at 4 °C for 18 h. After the incubation period, all wells were washed with a solution containing 0.05% PBS and Tween 20 (Sigma-Aldrich, St. Louis, MO, USA). A blocking solution containing 10% FBS in PBS was added to the wells and incubated for 1 h. Subsequently, the wells were washed again. The supernatant obtained from the macrophage infection assay was added to the respective wells. Known concentrations of recombinant cytokines (TNF-α, IL-10, IL-6, and IL-12) were also added to the plate in parallel, covering a range from high to low concentrations. The plates were maintained at 4 °C for another 18 h. […] The absorbance was measured in a plate reader at a wavelength of 450 nm. The concentration of cytokines (TNF-α, IL-10, IL-6, and IL-12) in the supernatants was determined by interpolation from the standard curve.

For a further data set, the system named is pulmonary artery. Briefly: Vasodilator effect on pulmonary artery rings (KCl contraction). As to conditions: guinea pig pulmonary artery rings. The protocol:
as §1, §2
Papillary muscles were isolated from the right ventricle of the heart and meticulously cleared of Purkinje fibers to prevent spontaneous activity. To ensure adequate oxygen supply, only muscles with a diameter less than 0.87 mm were used. The right atrium was also dissected for assessment of chronotropic activity. Both the aorta and pulmonary artery were cleaned and cut into 5 mm rings, while the ileum was sectioned into pieces measuring 1 to 2 cm.
One end of the dissected tissues was securely tied with silver wire for attachment to a tissue holder, while the other end was connected to a force transducer (Transbridge™, 4-Channel Transducer Amplifier, World Precision Instruments, Sarasota, FL, USA). For contractile measurements, the terminal ileum was stimulated with 60 mM KCl, and the pulmonary artery and aorta rings were exposed to a 90 mM KCl solution. […]
as §3

Another data set relates to IL-12. Briefly: Cytokine production in supernatant of infected macrophages (ELISA), IL-12. It is filed as cell-based, murine. The following applies: supernatant of RAW 264.7 macrophages infected with L. (V.) braziliensis.
Excerpt: as §4
On the technique in general: ELISA stands for enzyme-linked immunosorbent assay.

As to `CC(C)(C)c1ccc(N/C(=N\C(=O)c2ccccc2)NCc2ccccc2)cc1` [LQOF-G6, (Z)-N-benzoyl-N-benzyl-N-(4-tert-butylphenyl)guanidine], in data set [1], the ROS level result was “increased”. For the same molecule, the “inhibition of the enzyme LmCPB2.8ΔCTE” value with LmCPB2.8ΔCTE was 73%.

Turning to `O=C(/N=C(/NCc1ccccc1)Nc1ccc(Br)cc1)c1ccccc1` [LQOF-G2, (Z)-N-benzoyl-N-benzyl-N-(4-bromophenyl)guanidine], the EC50 was determined as 16 µM with aorta and 48 µM in the data set with pulmonary artery (Cavia porcellus). Also, the “reduction in the parasite load” value in data set [2] is 46%. The IL-10 level result in the data set on IL-10 was “decreased”. The ROS level entry in data set [1] is “increased”. The “arteria pulmonalis ring contraction force” value with pulmonary artery was “decrease”.

Turning to `O=C(/N=C(/NCc1ccccc1)Nc1ccc([N+](=O)[O-])cc1)c1ccccc1` [LQOF-G1, (Z)-N-benzoyl-N-benzyl-N-(4-nitrophenyl)guanidine], the IL-10 level result with IL-10 is listed as “decreased”. Moreover, the ROS level result in data set [1] is on record as “increased”. Besides, the IL-12 level entry in the data set on IL-12 is reported as “increased”.
